{"source": "ChEMBL document CHEMBL1126413", "about": "“Cumindysoside A, a novel cytotoxic trisnortriterpene glucoside with a 14, 18-cycloapoeuphane-type skeleton from Dysoxylum cumingianum” (1992)", "key": {"[1]": {"tested_on": "HCT-8", "assay": "Dose required for in vitro cytotoxic activity against HCT-8 colon carcinoma cells at concentration of 10 ug/ml; NA is no cytotoxicity", "format": "functional, cell-based", "conditions": "Homo sapiens"}, "[2]": {"assay": "Effective dose required for in vitro cytotoxic activity against TE-671 medulloblastoma tumor cells", "format": "functional", "conditions": "Homo sapiens, read-out: ED50 (the source's name)"}, "[3]": {"tested_on": "A549", "assay": "Dose required for in vitro cytotoxic activity against A-549 lung carcinoma cells at concentration of 10 ug/ml; NA is no cytotoxicity", "format": "functional, cell-based", "conditions": "Homo sapiens"}, "[4]": {"assay": "Effective dose required for in vitro cytotoxic activity against RPMI-7951 melanoma tumor cells", "format": "functional", "conditions": "Homo sapiens, read-out: ED50 (the source's name)"}}, "note": "The source made the active and inactive calls. The calls are words filed in the database; no cut-off is given here.", "data": [{"smiles": "C=C(C=O)[C@H](C)[C@@H]1CCC23CC12CC[C@@H]1[C@@]2(C)CC[C@@H](OC(C)=O)C(C)(C)[C@@H]2C[C@@H](O[C@@H]2O[C@H](COC(C)=O)[C@@H](O)[C@H](O)[C@H]2O)[C@]13C", "note": "(some centres undefined)", "values": [{"measurement": "Activity", "setting": "[1]", "result": "inactive"}, {"measurement": "EC50", "setting": "[2]", "result": 2.74, "unit": "µg/mL"}, {"measurement": "Activity", "setting": "[3]", "result": "inactive"}, {"measurement": "EC50", "setting": "[4]", "result": 0.34, "unit": "µg/mL"}]}]}
